Results taken from patent publication US11913884B2, “Visible light-activated dyes and methods of use thereof” (William Marsh Rice University, priority 2019, dated 2024).
Where “and” joins values, the source holds several entries; their conditions need not be identical. Identical values can stand only once. Counter-ions that a name gives are not always drawn. Like-named read-outs stand apart in the source and are kept apart here.

Columns and labels:
[1] = UV-vis absorption and fluorescence spectra of thio-caged and uncaged fluorophores; assay type: physicochemical; details: for λem / λabs: DMSO (50 μM); for λabs: absorption maxima
Method: Encouraged by the excellent photoactivation properties of SNile Red, Lawesson's reagent was employed to introduce thiocarbonyl moieties into several different fluorophores, such as phthalimide (PI), coumarin (Cou) and acridone (ACD), obtaining yields ranging from 20-80% (FIG. 1). Next, characterization of the spectroscopic and photochemical properties of these thiocaged fluorophores and their oxidized products using UV-vis and fluorescence spectroscopies was performed (Table 1). […] Double thiocarbonyl substitution on 4-dimethylaminophthalimide (4-DMAP, FIG. 1) produced an even larger bathochromic shift of 166 nm. […] It was hypothesized that the red-shift and enhanced absorption seen with thiocarbonyl compounds were due to the reduced energy gap between the HOMO-LUMO in these fluorophores. This is consistent with the computational results discussed below. […] To assess the efficiency of photoactivation for the various thio-caged fluorophores, UV-vis and fluorescence spectra were recorded after different irradiation times (FIGS. 4-8).
(§1) The ^1H NMR spectroscopic measurements were carried out using a Bruker-600 NMR at 600 MHz with tetramethysilane (TMS) as internal reference. Electrospray ionization (ESI) mass spectra were performed on a Bruker MicroToF ESI LC-MS System in positive-ion mode. The steady-state absorption spectra were obtained with a ThermoFisher Evolution 220 UV-Vis spectrophotometer in 1 cm path length quartz cells. Fluorescence spectra were recorded using spectrophotometer (SPEX FluoroLog-3). Quantum yield in DMSO was measured relative to the fluorescence of Rhodamine B (Φ=0.65) in ethanol or quinine sulfate (Φ=0.55) in 0.5 M·L^−1 H2SO4. FT-IR spectrum was taken on a PerkinElmer Spectrum 100 FT-IR Spectrometers. Confocal fluorescent images of living cells were performed using Nikon A1R-si Laser Scanning Confocal Microscope (Japan), equipped with lasers of 405/488/561/638 nm. STORM images were performed on a NSTORM (Nikon, Japan), featuring a CFI Apo TIRF 100× oil objective (NA 1.49) on an inverted Nikon Ti Eclipse microscope with a quad cube filter (Chroma, zt405/488/561/640 m-TRF), piezo stage, and Perfect Focus System (Nikon) for Z-stability. Light source are hand-held UV lamp, BlueView Transilluminator (470 nm centred, Vernier), Prior Lumen200 with 615/30 filter and 850 LED (Mouser Electronics).

[2] = Fluorescence quantum yield determination; assay type: physicochemical; details: DMSO; reference rhodamine B in ethanol or quinine sulfate in 0.5 M H2SO4
Method: as §1
Quantum yields were measured with Rhodamine B as reference (Φ=0.65) or quinine sulfate (Φ=0.55) in 0.5 M H2SO4. Fluorescence measurements were performed in 1 cm quartz cells with 5 μM samples in DMSO on spectrophotometer (SPEX FluoroLog-3) (slits 5×5). The fluorescence quantum yield, Φ (sample), were calculated according to equation as following:
[formula] Φ: quantum yield; I: integrated emission intensity; OD: optical density at the excitation wavelength; d: refractive index of solvents, dDMSO=1.478; dethanol=1.36; dwater=1.33.

[3] = Photoactivation (turn-on) of thio-caged fluorophores in solution by light irradiation; assay type: physicochemical; details: DMSO; footnote d: 615 nm, 0.4 μW cm^−2
Source text: To determine whether a minimal one atom sulfur-for-oxygen substitution within fluorophores can lead to fluorescence quenching, thio-caged Nile Red (SNile Red, FIG. 1) was synthesized, in which a carbonyl group was replaced with a thiocarbonyl moiety. Treatment of Nile Red with Lawesson's reagent in refluxing benzene produced the desired SNile Red in a yield of 40%. […] Irradiation of SNile Red with red light (615 nm, 0.4 μW cm-2) led to the regeneration of fluorescent Nile Red in a high yield (FIG. 2A). The absorption maxima of SNile Red at 298, 368 and 652 nm were blue-shifted after desulfuration to 315 and 556 nm, in a good agreement with the absorption spectrum of authentic synthesized Nile Red (FIG. 2B). The A556/A652 value, representing the ratio of the absorbance maxima of Nile Red and SNile Red, increased from 0.25 to 30 after desulfuration reaction (FIG. 2B). Upon irradiation with red light, the fluorescence intensity of the desulfurated material at 626 nm increased 280-fold, accompanied by a change in fluorescence from dark to red (FIG. 2C). To evaluate the proper light source for SNile Red photoactivation, SNile Red was irradiated with either 470 nm, 615 nm, or 850 nm light for different times and fluorescence intensities at 626 nm were recorded. […] To further characterize the photoactivated product of SNile Red, ^1H NMR and ESI-MS spectral changes were measured in the process of photoactivation (FIG. 2A). […] Signals corresponding to phenyl moiety protons at 8.64, 8.62, 7.85, 7.73, 7.36, 7.04, and 6.79 ppm gradually disappeared, and were replaced by new signals appearing at 8.57, 8.13, 7.81, 7.72, 7.63, 6.85, 6.69 and 6.30 ppm, respectively. […] The photoactivated product was also characterized by ESI-mass spectrometric analysis FIG. 3). The observed m/z 319.2 corresponding to Nile Red confirms the photoactivation product of SNile Red is its oxo form. Both dialkylthioketones and diarylthioketones are known to undergo photo-oxidation reaction under oxygen and light to give the corresponding ketones (Coyle, 1985, Corsaro and Pistara, 1998). To investigate the effects of dissolved oxygen and light on the photoactivation of thio-caged fluorophores, the time profile of the fluorescence of SNile Red was measured in the presence or absence of light, or oxygen. […] To study the effect of oxygen during the photoactivation, the inventors prepared an oxygen-free SNile Red solution by bubbling nitrogen gas and irradiated at 615 nm. […] Inspired by the photoactivation mechanism of thioketones, it was hypothesized that singlet oxygen generated by self-sensitization can be the active species to oxidize thiocarbonyl groups within fluorophores (Coyle, 1985 and Corsaro and Pistara, 1998). […] The singlet oxygen quantum yield (DA) was further determined to be 0.36 with considering the absorption correction factor over the 600-630 nm region (Bonacin et al., 2009 and Adarsh et al., 2010) by referring to methylene blue (MB) (ΦΔ,MB=0.57 in dichloromethane; Li et al., 2013).
Encouraged by the excellent photoactivation properties of SNile Red, Lawesson's reagent was employed to introduce thiocarbonyl moieties into several different fluorophores, such as phthalimide (PI), coumarin (Cou) and acridone (ACD), obtaining yields ranging from 20-80% (FIG. 1). Next, characterization of the spectroscopic and photochemical properties of these thiocaged fluorophores and their oxidized products using UV-vis and fluorescence spectroscopies was performed (Table 1). […] Double thiocarbonyl substitution on 4-dimethylaminophthalimide (4-DMAP, FIG. 1) produced an even larger bathochromic shift of 166 nm. […] It was hypothesized that the red-shift and enhanced absorption seen with thiocarbonyl compounds were due to the reduced energy gap between the HOMO-LUMO in these fluorophores. This is consistent with the computational results discussed below. […]

[4] = system: H2B-Halo expressed CHO-K1 cells; assay: Turn-on of 5NP-Halo in cells; assay type: cell-based; details: 10 μM for 1 h
Source text: FIGS. 19A & 19B show turn-on of 5NP-Halo in H2B-Halo expressed CHO-K1 cells.

[5] = cited from earlier work
[6] = in dichloromethane; cited from earlier work

| SMILES | λem [1] | λabs [1] | ø (fluorescence quantum yield) [2] | also measured |
| --- | --- | --- | --- | --- |
| O=c1c2ccccc2[nH]c2ccccc12 [ACD, acridone] | 406 nm and 428 nm and 455 nm | 361 nm and 379 nm and 398 nm | 0.64 |  |
| O=c1ccc2ccccc2o1 [Cou, coumarin] | 445 nm |  | 0.71 |  |
| O=C(CN1C(=S)c2cccc3c(N4CCCC4)ccc(c23)C1=S)NCCOCCOCCCCCCCl [Dye 5NP-Halo] |  |  |  | fluorescence upon photoactivation of treated cells [4]: enhanced fluorescence |
| CCN(CC)c1ccc2c(-c3ccccc3C(=O)O)c3ccc(=[N+](CC)CC)cc-3oc2c1.[Cl-] [Rhodamine B] |  |  |  | fluorescence quantum yield Φ of reference ([5]; in ethanol): 0.65 |
| S=c1c2ccccc2[nH]c2ccccc12 [SACD] | 409 nm and 427 nm and 463 nm | 430 nm and 456 nm | <0.001 | Turn-on (x-fold) [3]: 180^d x-fold |
| CN(C)c1ccc2nc3ccc(=[N+](C)C)cc-3sc2c1 [methylene blue] |  |  |  | singlet oxygen quantum yield (ΦΔ,MB) of reference [6]: 0.57 |
| C=C[C@H]1C[N@@]2CC[C@H]1C[C@H]2[C@H](O)c1ccnc2ccc(OC)cc12 [quinine sulfate] |  |  |  | fluorescence quantum yield Φ of reference ([5]; in 0.5 M H2SO4): 0.55 |

More lines, main results first:

| λem [1] | λabs [1] | ø (fluorescence quantum yield) [2] | SMILES | also measured |
| --- | --- | --- | --- | --- |
| 505 nm | 267 nm and 325 nm and 397 nm | 0.09 | CN(C)c1ccc2c(c1)C(=O)NC2=O [DMAP, 4-dimethylaminophthalimide] | bathochromic shift of absorption maximum ([1]; double thiocarbonyl substitution versus carbonyl compound): 166 nm |
| 294 nm |  | <0.001 | S=C1NC(=S)c2ccccc21 [Dye 2SPI] | Turn-on (x-fold) [3]: 30^d x-fold |
| 626 nm |  | 0.46 | CCN(CC)c1ccc2nc3c4ccccc4c(=O)cc-3oc2c1 [Nile Red] |  |
| 347 nm |  | 0.001 | O=C1NC(=O)c2ccccc21 [OPI, phthalimide] |  |
| 447 nm | 326 nm and 390 nm and 563 nm | <0.001 | CN(C)c1ccc2c(c1)C(=S)NC2=S [SDMAP] | Turn-on (x-fold) [3]: 1600^d x-fold |
